Reference: US5998596A, “Inhibition of protein kinase activity by aptameric action of oligonucleotides” (The United States of America as represented by the …)

Key:
p145^abl kinase [1] = experiment: Immunoprecipitation kinase assay of p145abl; format: biochemical
Description: (§1) The p210^bcr-abl kinase, src kinase and cdc-2 kinase were immunoprecipitated from K562 cells. The p145^abl kinase was immunoprecipitated from PC3M cells, PDGF receptor kinase from 3T3 cells, and EGF receptor kinase from A431 cells. MAP kinase was utilized as a pure protein and lck kinase was immunoprecipitated from peripheral blood lymphocytes of a normal volunteer.
Cells were washed in phosphate buffered saline (PBS) and 0.5-5×10^6 cells were solubilized in 1 ml of the specified cell lysis buffers. Unless otherwise stated, all cell lysis buffers contained the following protease inhibitors: 20 μg/ml leupeptin, 1 μg/ml aprotinin, and 1 mM phenylmethylsulfonylfluroide. For p210^bcr-abl and […] immunoprecipitation, cells were lysed with ABL lysis buffer (25 mM imidazole, pH 7.2, 0.5% NP40, 50 mM NaCl, 1 mM Na3 VO4) and lysates were clarified at 14,000 g. 4° C. for 30 minutes. Cell lysis for all other proteins was performed according to the references describing the various immunoprecipitation kinase assays.
Immunoprecipitation kinase assays of p210^bcr-abl p145^abl were performed as described, with modifications (15). Briefly, for p210^bcr-abl, 1 μg of anti-bcr antibody (clone 7C6, Oncogene Science, Uniondale, N.Y.) was added to lysates prepared from 0.5-1×10^6 K562 cells. […]

src kinase = experiment: Immunoprecipitation kinase assay of c-src with enolase as substrate; format: biochemical, human
From the text: as §1
(§2) Epidermal growth factor receptor (EGFR) was immunoprecipitated with 10 ,g anti-EGFR antibody (clone LA1) and human recombinant epidermal growth factor (both from Upstate Biotechnology Inc., Lake Placid, N.Y.). The assay was performed as described (17) but without removing the EGFR from the protein A-antibody solid support. Instead, epidermal growth factor, at a final concentration of 100 nM, was added to the kinase reaction mixture. Platelet derived growth factor receptor (DGFR) was immunoprecipitated with anti-human type A/type B PDGFR antibody (Upstate Biotechnology Inc.) and immune complex kinase assays performed as referenced (18) except that protein A-Sepharose coated with rabbit anti-mouse immunoglobulin was used instead of formalin-fixed Staphylococcus aureus to bind PDGFR-antibody conjugates. C-src was immunoprecipitated with anti-v-src antibody (Ab-1; Oncogene Science) and assayed as previously described (19) with the addition of enolase as exogenous substrate. […]

[2] = test system: Platelet derived growth factor receptor (PDGFR); experiment: PDGFR autophosphorylation immune complex kinase assay; format: biochemical
From the text: as §1, §2

cdc-2 kinase = cdc-2 kinase assay with dephosphorylated casein; format: biochemical, human; settings: Cerenkov counting of excised gel slices
From the text: as §1, §2

MAP kinase = MAP kinase assay with purified enzyme; format: biochemical; settings: Cerenkov counting of excised gel slices
From the text: as §1, §2

p145^abl kinase [3] = experiment: Phosphorylation of exogenous substrate enolase by p145abl; format: biochemical; settings: ODN1 concentrations of up to 50 μM
Description: Immunoprecipitation kinase assays of p210^bcr-abl p145^abl were performed as described, with modifications (15). Briefly, for p210^bcr-abl, 1 μg of anti-bcr antibody (clone 7C6, Oncogene Science, Uniondale, N.Y.) was added to lysates prepared from 0.5-1×10^6 K562 cells. For p145^abl, 1 μg of anti-c-abl antibody (clone 24-21), which binds to the C-terminal domain of p145^abl, was added to lysates prepared from 5×10^6 PC3M cells. After incubating 1 hour at 4° C., complexes were precipitated by incubating with protein A-Sepharose coated with rabbit anti-mouse immunoglobulin (Cappel Research Products, Durham, N.C.) for 30 minutes. The complexes were then washed as follows: ABL lysis buffer×2, PBS×1, and ABL assay buffer×1 (24 mM imidazole, pH 7.2, 1 mg/ml bovine serum albumin, and 10 mM MnCl). For p145^abl assays ABL assay buffer contained 20 mM MnCl. To access the activity of p210^bcr-abl on substrate phosphorylation, acid inactivated enolase (Sigma Chemical Co., St. Louis, Mo.) was added as described (15).
ODNs were added to kinase reaction buffers not more than 5 minutes prior to the addition of ATP. Reactions were initiated by the addition of [γ^-32 P] ATP (3000 Ci/mmole; Amersham Corp., Arlington Heights, Ill.) and quenched by the addition of 5× gel loading buffer and heating to 95° C. […]

K562 cells = experiment: K562 colony formation in soft agar; format: cell-based, human; settings: 50 μM ODN, two weeks, not electroporated
Description: K562, NIH 3T3, and A431 cells were purchased from the American Type Culture Collection (Rockville, Md.). PC3M prostate cancer cells were a generous gift from J. Trepel (National Institutes of Health, Bethesda, Md.). K562 and PC3M cells were cultured in RPMI 1640 with 10% heat-inactivated fetal bovine serum (FBS; GIBCO BRL, Grand Island, N.Y.) while NIH 3T3 and A431 cells were cultured in Dulbecco's modified Eagle's medium (Biofluids, Rockville, Md.) with 10% heat inactivated FBS. Cells were maintained at 37° C., 6% carbon dioxide with biweekly media changes. For soft agar cloning, cells were suspended in 0.3% low melting temperature agarose (SeaPlaque FMC BioProducts, Rockland, Me.) in RPMI 1640 with 10% total calf serum and maintained as above.
To evaluate the effects of these various ODNs of K562 cell growth, both growth in liquid culture and growth in soft agar were examined. […] Cells were electroporated in the presence of 50 μM ODN and kept in liquid culture. For soft agar cloning experiments, cells were not electroporated, but were grown in the presence of 50 μM ODN for two weeks. Liquid cultures were replenished with fresh medium containing 50 μM ODN. Two weeks following incubation in liquid culture, the number of trypan blue-excluding cells was determined. No effect on cell growth in liquid culture could be observed with any ODN tested (data not shown).

[4] = Cerenkov counting of excised gel slices, mean ± SD

5'-GTCCACCATGGCGCGGCCGGC-3' [ODN1] (phosphorothioate caps, further chemistry not given here) [21mer ODN complementary to nucleotides -12 to +9 of the p210bcr-abl mRNA, phosphorothioate capped unless otherwise specified]
sensitivity of p145^abl compared with p210^bcr-abl (p145^abl kinase [1]): equally sensitive
IC50 (p145^abl kinase [1]; [4]): 0.62 ± 0.24 µM
IC50 (src kinase; Cerenkov counting of excised gel slices): > 100 µM
inhibition of src (in words) (src kinase; ODN1 concentrations greater than 2 logs above the Ki for p210^bcr-abl): not significantly inhibited
sensitivity of PDGF receptor relative to p145^abl or p210^bcr-abl [2]: almost a log less sensitive
IC50 [2, 4]: 4.4 ± 2.3 µM
IC50 (cdc-2 kinase): > 50 µM
IC50 (MAP kinase): > 100 µM
inhibition of enolase phosphorylation by p145^abl (p145^abl kinase [3]): no significant inhibition
ability to form colonies in soft agar (K562 cells): inhibited the ability of these cells to form colonies in soft agar
